# Results as given in patent US8685967B2, “Substituted triazolopyridines and analogs thereof” (Merck Sharp & Dohme Corp., priority 2009, dated 2014).
# Molecular target: T1, Human recombinant PDE10A1 (Homo sapiens, UniProt Q9Y233)
# T1 construct: purchased BPS Bioscience, Inc
# Assay: In Vitro PDE10 Assay (scintillation proximity assay, [3H]cAMP)
# Format: biochemical
# Conditions: PDE10A1 0.02 nM, 10 nM [3H]cAMP, 30 minutes at room temperature; Ki by Cheng and Prusoff
# Description: PDE10A1 activity was measured in white opaque 384-well Opti-Plates (Perkin Elmer Life Sciences) using a scintillation proximity assay (GE Healthcare). Human recombinant PDE10A1 was purchased from BPS Bioscience, Inc. The reaction mixture contained PDE10A1 (0.02 nM), 10 nM [^3H]cAMP ([5′,8-^3H]Adenosine 3′,5′-cyclic phosphate, ammonium salt], Amersham) and various concentrations of compound in 50 mM Tris-HCl, pH 7.5, 8.3 mM MgCl2, […] and 0.2% bovine serum albumen in a total volume of 30 μl. The assay was initiated with the addition of substrate and was allowed to proceed for 30 minutes at room temperature before being stopped by the addition of 300 μg yttrium SPA PDE beads. The reaction mixtures were thoroughly mixed, and the beads were allowed to settle for 30 minutes. The plates were then counted in a TopCount scintillation counter. Under these conditions, less than 30% of the substrate was hydrolyzed in the absence of compound. Ki values were determined as described by Cheng and Prusoff (1973).
# T1 sequence (Q9Y233 1-779 isoform Q9Y233-1): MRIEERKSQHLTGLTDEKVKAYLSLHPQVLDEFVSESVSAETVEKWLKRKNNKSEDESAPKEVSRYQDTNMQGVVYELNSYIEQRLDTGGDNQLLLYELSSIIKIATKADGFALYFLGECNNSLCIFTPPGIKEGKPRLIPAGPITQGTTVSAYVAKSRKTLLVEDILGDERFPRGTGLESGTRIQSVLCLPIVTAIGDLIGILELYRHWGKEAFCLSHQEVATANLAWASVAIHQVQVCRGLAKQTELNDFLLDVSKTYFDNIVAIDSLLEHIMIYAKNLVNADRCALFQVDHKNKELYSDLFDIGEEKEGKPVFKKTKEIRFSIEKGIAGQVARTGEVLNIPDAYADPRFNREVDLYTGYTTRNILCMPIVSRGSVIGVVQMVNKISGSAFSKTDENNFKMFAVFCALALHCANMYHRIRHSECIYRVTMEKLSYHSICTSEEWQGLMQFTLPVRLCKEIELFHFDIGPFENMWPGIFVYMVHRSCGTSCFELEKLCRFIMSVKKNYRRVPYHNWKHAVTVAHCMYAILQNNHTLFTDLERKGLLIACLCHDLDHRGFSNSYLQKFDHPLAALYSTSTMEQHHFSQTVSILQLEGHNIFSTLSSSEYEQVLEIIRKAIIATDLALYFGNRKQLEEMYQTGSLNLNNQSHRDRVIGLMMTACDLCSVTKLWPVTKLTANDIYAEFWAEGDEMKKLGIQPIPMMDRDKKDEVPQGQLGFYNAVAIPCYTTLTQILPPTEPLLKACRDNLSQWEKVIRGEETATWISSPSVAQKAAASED
row,SMILES,Ki [nM]
1,CC(C)(C)c1nnc2c(C(=O)NCCc3nc4ccc(F)cc4[nH]3)cccn12 [Example 1AA],< 50
2,O=C(NCCc1nc2ccccc2[nH]1)c1cccn2c(C(F)(F)F)nnc12 [Example 1A],< 50
3,O=C(NCCc1nc2cc(Cl)ccc2[nH]1)c1cccn2c(C3CCC3)nnc12 [Example 1BBB],< 50
4,O=C(NCCc1nc2ccccc2[nH]1)c1cccn2c(C3CC3)nnc12 [Example 1BB],< 50
5,O=C(NCCc1nc2cc(Cl)ccc2[nH]1)c1cccn2c(C(F)(F)F)nnc12 [Example 1B],< 50
6,CC(C)c1nnc2c(C(=O)NCCc3nc4cc(Cl)c(F)cc4[nH]3)cccn12 [Example 1DDD],< 50
7,CCc1nnc2c(C(=O)NCCc3nc4cc(Cl)ccc4[nH]3)cccn12 [Example 1DD],< 50
8,COc1ccc2nc(CCNC(=O)c3cccn4c(C)nnc34)[nH]c2c1 [Example 1EE],< 10
9,CC(C)(C)c1nnc2c(C(=O)NCCc3nc4ccccc4[nH]3)cc(Br)cn12 [Example 1E],< 50
10,O=C(NCCc1nc2cc(Cl)ccc2[nH]1)c1cc(F)cn2c(C3CC3)nnc12 [Example 1FFF],< 50
11,Cc1nnc2c(C(=O)NCCc3nc4cc(Cl)ccc4[nH]3)cccn12 [Example 1FF],< 50
12,CC(C)c1nnc2c(C(=O)NCCc3nc4ccccc4[nH]3)cccn12 [Example 1GG],< 50
13,O=C(NCCc1nc2cc(Cl)ccc2[nH]1)c1cc(Br)cn2c(C3CC3)nnc12 [Example 1HH],< 50
14,O=C(NCCc1nc2ccc(F)cc2[nH]1)c1cc(Br)cn2c(C3CC3)nnc12 [Example 1II],< 50
15,O=C(NCCc1nc2ccccc2[nH]1)c1cc(Br)cn2c(C3CC3)nnc12 [Example 1I],< 50
16,O=C(NCCc1nc2cc(Cl)ccc2[nH]1)c1cccn2c(Br)nnc12 [Example 1LL],< 50
17,CC(C)(C)c1nnc2c(C(=O)NCCc3nc4ccccc4[nH]3)cc(F)cn12 [Example 1MM],< 50

row,SMILES,Ki [nM]
1,CC(C)(C)c1nnc2c(C(=O)NCCc3nc4cc(Cl)ccc4s3)cc(Br)cn12 [Example 1M],< 10
2,O=C(NCCc1nc2ccccc2[nH]1)c1cc(F)cn2c(C3CC3)nnc12 [Example 1NN],< 50
3,CC(C)(C)c1nnc2c(C(=O)NCCc3nc4ccccc4s3)cc(Br)cn12 [Example 1N],< 10
4,O=C(NCCCc1nc2ccccc2[nH]1)c1cccn2c(C3CC3)nnc12 [Example 1O],< 10
5,CC(C)(C)c1nnc2c(C(=O)NCCCc3nc4ccccc4[nH]3)cccn12 [Example 1P],< 10
6,CC(C)(C)c1nnc2c(C(=O)NCCCc3nc4ccccc4[nH]3)cc(Br)cn12 [Example 1Q],< 10
7,O=C(NCCc1nc2cc(Cl)ccc2[nH]1)c1cccn2c(C3CC3)nnc12 [Example 1R],< 50
8,COc1ccc2nc(CCNC(=O)c3cccn4c(C5CCC5)nnc34)[nH]c2c1 [Example 1SS],< 10
9,CC(C)c1nnc2c(C(=O)NCCc3nc4cc(Cl)ccc4[nH]3)cccn12 [Example 1S],< 50
10,O=C(NCCc1nc2ccc(F)cc2[nH]1)c1cccn2c(C3CC3)nnc12 [Example 1T],< 50
11,COc1ccc2nc(CCNC(=O)c3cccn4c(C5CC5)nnc34)[nH]c2c1 [Example 1UU],< 50
12,O=C(NCCc1nc2c(Cl)cc(C(F)(F)F)cc2[nH]1)c1cccn2c(C3CC3)nnc12 [Example 1VV],< 10
13,COc1ccc2nc(CCNC(=O)c3cccn4c(C(C)C)nnc34)[nH]c2c1 [Example 1XX],< 50
14,O=C(NCCc1nc2cc(Cl)c(F)cc2[nH]1)c1cccn2c(C3CC3)nnc12 [Example 1ZZ],< 50
15,CC(C)(C)c1nnc2c(C(=O)NCCc3nc4cc(Cl)ccc4[nH]3)cccn12 [Example 1Z],< 10
16,Cn1c(CCNc2cccc3ccn4c(C(F)(F)F)nnc4c23)nc2ccccc21 [Example 8],< 50

# Second part, the compound after the results:
row,Ki [nM],SMILES
1,< 10,Cc1nc2c(C(=O)NCCc3nc4cc(Cl)ccc4[nH]3)cccn2n1 [Example 2B]
2,< 50,O=C(NCCc1nc2ccc(F)cc2[nH]1)c1cc(Br)cn2nc(C3CC3)nc12 [Example 2D]
3,< 10,O=C(NCCc1nc2ccccc2[nH]1)c1cc(Br)cn2nc(C3CC3)nc12 [Example 2F]
4,< 50,O=C(NCCc1nc2cc(Cl)ccc2[nH]1)c1cccn2nc(Br)nc12 [Example 2G]
5,< 50,CC(C)(C)c1nnc2c(C(=O)NCCc3nc4ccccc4[nH]3)cc(-c3ccncc3)cn12 [Example 4A]
6,< 10,CC(C)(C)c1nnc2c(C(=O)NCCCc3nc4ccccc4[nH]3)cc(-c3cccc(O)c3)cn12 [Example 4D]
7,< 50,CC(C)(C)c1nnc2c(C(=O)NCCCc3nc4ccccc4[nH]3)cc(-c3ccncc3)cn12 [Example 4E]
8,< 50,CC(C)(C)c1nnc2c(C(=O)NCCCc3nc4ccccc4[nH]3)cc(-c3cccnc3)cn12 [Example 4F]
9,< 50,CC(C)(C)c1nnc2c(C(=O)NCCCc3nc4ccccc4[nH]3)cc(C#CCO)cn12 [Example 5B]
10,< 50,Cn1c(CCNC(=O)c2cccn3c(C4CC4)nnc23)nc2cc(Cl)ccc21 [Example 7A]
11,< 50,Cn1c(CCNC(=O)c2cccn3c(C4CC4)nnc23)nc2ccccc21 [Example 7D]
12,< 50,Cn1c(CCNC(=O)c2cccn3c(C(C)(C)C)nnc23)nc2cc(Cl)ccc21 [Example 7E]
13,< 50,Cc1nnc2c(C(=O)NCCc3nc4cc(Cl)ccc4n3C)cccn12 [Example 7K]
14,< 10,CCn1c(CCNC(=O)c2cccn3c(C(C)C)nnc23)nc2ccccc21 [Example 7O]
15,< 50,Cn1c(CCCNc2cccc3ccn4c(C(C)(C)C)nnc4c23)nc2ccccc21 [Example 8B]
16,< 50,Cn1c(CCCNc2cccc3ccn4c(C(F)(F)F)nnc4c23)nc2ccccc21 [Example 8C]
